Columns and labels:
Alternaria solani = Alternaria solani / tomato / leaf disc (early blight); assay type: in vivo; settings: foliar, tomato leaf disks cv. Baby, inoculated 2 days after application, assessed 5-7 days after application, read-out: control of Alternaria solani (percent disease control compared to untreated)
Description: Example B1: Alternaria solani/Tomato/Leaf Disc (Early Blight) Tomato leaf disks cv. Baby are placed on agar in multiwell plates (24-well format) and sprayed with the formulated test compound diluted in water. The leaf disks are inoculated with a spore suspension of the fungus 2 days after application. The inoculated leaf disks are incubated at 23° C./21° C. […] […]-185.

[1] = system: Glomerella lagenarium (Colletotrichum lagenarium); assay: Glomerella lagenarium (Colletotrichum lagenarium) / liquid culture (anthracnose); assay type: cell-based; settings: Colletotrichum orbiculare, PDB potato dextrose broth, 24° C., 3-4 days after application, read-out: control of Glomerella lagenarium (inhibition of growth, photometric)
Method in brief: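 Fungal growth inhibition measured photometrically 3-4 days post-application at 24° C. Spores were mixed directly into potato dextrose broth and dispensed onto test compound supplied in DMSO.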

[2] = system: Blumeria graminis f. sp. tritici (Erysiphe graminis f. sp. tritici); assay: Blumeria graminis f. sp. tritici / wheat / leaf disc preventative (powdery mildew on wheat); assay type: in vivo; settings: foliar, wheat leaf segments cv. Kanzler, inoculated 1 day after application, assessed 6-8 days after application, read-out: control of Blumeria graminis f. sp. tritici (percent disease control compared to untreated)
Source text: Example B4: Blumeria graminis f. sp. tritici (Erysiphe graminis f. sp. tritici)/Wheat/Leaf Disc Preventative (Powdery Mildew on Wheat) Wheat leaf segments cv. Kanzler are placed on agar in a multiwell plate (24-well format) and sprayed with the formulated test compound diluted in water. The leaf disks are inoculated by shaking powdery mildew infected plants above the test plates 1 day after application. […] […]-192.

[3] = system: Monographella nivalis (Microdochium nivale); assay: Monographella nivalis (Microdochium nivale) / liquid culture (foot rot cereals); assay type: cell-based; settings: PDB potato dextrose broth, 24° C., 4-5 days after application, read-out: control of Monographella nivalis (inhibition of growth, photometric)
Method in brief: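 Growth inhibition measured by photometry 4-5 days post-application at 24° C. Compound was dispensed as DMSO solution, then PDB broth containing conidia from cryogenic storage was added.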

[4] = system: Puccinia recondita f. sp. tritici; assay: Puccinia recondita f. sp. tritici / wheat / leaf disc preventative (brown rust); assay type: in vivo; settings: foliar, wheat leaf segments cv. Kanzler, inoculated 1 day after application, assessed 7-9 days after application, read-out: control of Puccinia recondita f. sp. tritici, preventative (percent disease control compared to untreated)
Description: Example B11: Puccinia recondita f. sp. tritici/Wheat/Leaf Disc Preventative (Brown Rust) Wheat leaf segments cv. Kanzler are placed on agar in multiwell plates (24-well format) and sprayed with the formulated test compound diluted in water. The leaf disks are inoculated with a spore suspension of the fungus 1 day after application. The inoculated leaf segments are incubated at 19° C. and 75% rh under a light regime of 12 h light/12 h darkness in a climate cabinet and the activity of a compound is assessed as percent disease control compared to untreated when an appropriate level of disease damage appears in untreated check leaf segments (7-9 days after application). […] […]-190.

[5] = system: Magnaporthe grisea (Pyricularia oryzae); assay: whole plant or invertebrate; assay type: in vivo; settings: foliar, read-out: control of Magnaporthe grisea (percent disease control compared to untreated)
Pyrenophora teres = Pyrenophora teres / barley / leaf disc preventative (net blotch); assay type: in vivo; settings: foliar, barley leaf segments cv. Hasso, inoculated 2 days after application, assessed 5-7 days after application, read-out: control of Pyrenophora teres (disease control compared to untreated)
Description: Example B13: Pyrenophora teres/Barley/Leaf Disc Preventative (Net Blotch) Barley leaf segments cv. Hasso are placed on agar in a multiwell plate (24-well format) and sprayed with the formulated test compound diluted in water. The leaf segments are inoculated with a spore suspension of the fungus 2 days after application. The inoculated leaf segments are incubated at 20° C. and 65% rh under a light regime of 12 h light/12 h darkness in a climate cabinet and the activity of a compound is assessed as disease control compared to untreated when an appropriate level of disease damage appears in untreated check leaf segments (5-7 days after application). […] […]-185.

[6] = system: Mycosphaerella graminicola (Septoria tritici); assay: Mycosphaerella graminicola (Septoria tritici) / liquid culture (Septoria blotch); assay type: cell-based; settings: Zymoseptoria tritici, PDB potato dextrose broth, 24° C., 4-5 days after application, read-out: control of Mycosphaerella graminicola (inhibition of growth, photometric)
Method in brief: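 Fungal growth inhibition was read photometrically 4-5 days after application. Compound was dosed from a DMSO solution into liquid cultures of spores in potato dextrose broth, incubated at 24° C.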

[7] = system: Mycosphaerella arachidis (Cercospora arachidicola); assay: Mycosphaerella arachidis (Cercospora arachidicola) / liquid culture (early leaf spot); assay type: cell-based; settings: PDB potato dextrose broth, 24° C., 4-5 days after application, read-out: control of Mycosphaerella arachidis (inhibition of growth, photometric)
Description: Example B8: Mycosphaerella arachidis (Cercospora arachidicola)/Liquid Culture (Early Leaf Spot) Conidia of the fungus from cryogenic storage are directly mixed into nutrient broth (PDB potato dextrose broth). After placing a (DMSO) solution of test compound into a microtiter plate (96-well format), the nutrient broth containing the fungal spores is added. The test plates are incubated at 24° C. and the inhibition of growth is determined photometrically 4-5 days after application. […] […]-180.

[8] = system: Phaeosphaeria nodorum (Septoria nodorum); assay: Phaeosphaeria nodorum (Septoria nodorum) / wheat / leaf disc preventative (glume blotch); assay type: in vivo; settings: Parastagonospora nodorum, foliar, wheat leaf segments cv. Kanzler, inoculated 2 days after application, assessed 5-7 days after application, read-out: control of Phaeosphaeria nodorum (percent disease control compared to untreated)
Description: Example B6: Phaeosphaeria nodorum (Septoria nodorum)/Wheat/Leaf Disc Preventative (Glume Blotch) Wheat leaf segments cv. Kanzler are placed on agar in a multiwell plate (24-well format) and sprayed with the formulated test compound diluted in water. The leaf disks are inoculated with a spore suspension of the fungus 2 days after application. The inoculated test leaf disks are incubated at 20° C. and 75% rh under a light regime of 12 h light/12 h darkness in a climate cabinet and the activity of a compound is assessed as percent disease control compared to untreated when an appropriate level of disease damage appears in untreated check leaf disks (5-7 days after application). […] […]-190.

COc1ccc(Nc2cc(F)nc(F)c2)nc1C(=O)NC1CCC12CCCC2 (stereo not drawn) [Compound P-6, 6-[(2,6-difluoro-4-pyridyl)amino]-3-methoxy-N-spiro[3.4]octan-3-yl-pyridine-2-carboxamide]
≥ 80%: pest or weed control at 200 ppm (Alternaria solani) | inhibition at 20 ppm [1] | pest or weed control at 200 ppm [2] | inhibition at 20 ppm [3] | pest or weed control at 200 ppm [4] | pest or weed control at 200 ppm [5] | pest or weed control at 200 ppm (Pyrenophora teres) | inhibition at 20 ppm [6]

COc1ccc(Nc2cc(F)cc(F)c2)nc1C(=O)NCC(C)c1ccccc1 (stereo not drawn) [Compound P-23, 6-(3,5-difluoroanilino)-3-methoxy-N-(2-phenylpropyl)pyridine-2-carboxamide]
≥ 80%: inhibition at 20 ppm [1] | inhibition at 20 ppm [3] | inhibition at 20 ppm [7] | pest or weed control at 200 ppm [4] | pest or weed control at 200 ppm [5] | inhibition at 20 ppm [6]

COc1ccc(Nc2cc(F)cc(F)c2)nc1C(=O)NCc1ccccc1 [Compound P-25, N-benzyl-6-(3,5-difluoroanilino)-3-methoxy-pyridine-2-carboxamide]
≥ 80%: inhibition at 20 ppm [1] | pest or weed control at 200 ppm [2] | pest or weed control at 200 ppm [8] | inhibition at 20 ppm [3] | pest or weed control at 200 ppm [4] | pest or weed control at 200 ppm [5] | inhibition at 20 ppm [6]

COc1ccc(Nc2cc(F)cc(F)c2)nc1C(=O)NCCOc1ccc(F)cc1 [Compound P-27, 6-(3,5-difluoroanilino)-N-[2-(4-fluorophenoxy)ethyl]-3-methoxy-pyridine-2-carboxamide]
≥ 80%: inhibition at 20 ppm [1] | pest or weed control at 200 ppm [8] | inhibition at 20 ppm [3] | inhibition at 20 ppm [7] | pest or weed control at 200 ppm [4] | pest or weed control at 200 ppm [5] | inhibition at 20 ppm [6]

COc1ccc(Nc2cc(F)nc(F)c2)nc1C(=O)NCCC(C)C [Compound P-29, 6-[(2,6-difluoro-4-pyridyl)amino]-N-isopentyl-3-methoxy-pyridine-2-carboxamide]
≥ 80%: inhibition at 20 ppm [1] | pest or weed control at 200 ppm [2] | inhibition at 20 ppm [3] | pest or weed control at 200 ppm [4] | pest or weed control at 200 ppm [5] | pest or weed control at 200 ppm (Pyrenophora teres) | inhibition at 20 ppm [6]

COc1ccc(Nc2cnsc2)nc1C(=O)NC(C)CCCC(C)C (stereo not drawn) [Compound P-36, N-(1,5-dimethylhexyl)-6-(isothiazol-4-ylamino)-3-methoxy-pyridine-2-carboxamide]
≥ 80%: inhibition at 20 ppm [1] | inhibition at 20 ppm [3] | inhibition at 20 ppm [7] | inhibition at 20 ppm [6]

CC1(C)CCC1NC(=O)c1nc(Nc2cc(F)cc(F)c2)ccc1OC(F)F (stereo not drawn) [Compound P-46, 6-(3,5-difluoroanilino)-3-(difluoromethoxy)-N-(2,2-dimethylcyclobutyl)pyridine-2-carboxamide]
≥ 80%: inhibition at 20 ppm [1] | pest or weed control at 200 ppm [8] | inhibition at 20 ppm [3] | inhibition at 20 ppm [7] | pest or weed control at 200 ppm [5] | inhibition at 20 ppm [6]

COc1ccc(Nc2cc(F)cc(F)c2)nc1C(=O)NC1COC2(CC2)C1 (stereo not drawn) [Compound P-70, 6-(3,5-difluoroanilino)-3-methoxy-N-(4-oxaspiro[2.4]heptan-6-yl)pyridine-2-carboxamide]
≥ 80%: pest or weed control at 200 ppm (Alternaria solani) | inhibition at 20 ppm [1] | pest or weed control at 200 ppm [2] | inhibition at 20 ppm [3] | pest or weed control at 200 ppm [4] | pest or weed control at 200 ppm [5] | inhibition at 20 ppm [6]

COc1ccc(Nc2cc(F)cc(F)c2)nc1C(=O)NC1C2CCOC2C1(C)C (stereo not drawn) [Compound P-76, 6-(3,5-difluoroanilino)-N-(7,7-dimethyl-2-oxabicyclo[3.2.0]heptan-6-yl)-3-methoxy-pyridine-2-carboxamide]
≥ 80%: pest or weed control at 200 ppm (Alternaria solani) | inhibition at 20 ppm [1] | pest or weed control at 200 ppm [2] | inhibition at 20 ppm [3] | pest or weed control at 200 ppm [4] | pest or weed control at 200 ppm [5] | pest or weed control at 200 ppm (Pyrenophora teres) | inhibition at 20 ppm [6]

COc1ccc(Nc2cnsc2)nc1C(=O)NC1CCc2cc(C(F)(F)F)ccc21 (stereo not drawn) [Compound P-79, 6-(isothiazol-4-ylamino)-3-methoxy-N-[5-(trifluoromethyl)indan-1-yl]pyridine-2-carboxamide]
≥ 80%: inhibition at 20 ppm [1] | inhibition at 20 ppm [3] | inhibition at 20 ppm [7] | pest or weed control at 200 ppm [4] | inhibition at 20 ppm [6]

COc1ccc(Nc2cc(F)nc(F)c2)nc1C(=O)NC(C)CCCC(C)C (stereo not drawn) [Compound P-102, 6-[(2,6-difluoro-4-pyridyl)amino]-N-(1,5-dimethylhexyl)-3-methoxy-pyridine-2-carboxamide]
≥ 80%: inhibition at 20 ppm [1] | inhibition at 20 ppm [3] | inhibition at 20 ppm [7] | pest or weed control at 200 ppm [4] | pest or weed control at 200 ppm [5] | pest or weed control at 200 ppm (Pyrenophora teres) | inhibition at 20 ppm [6]

COc1ccc(Nc2cc(F)nc(F)c2)nc1C(=O)NC1(C)CCCCC1 [Compound P-110, 6-[(2,6-difluoro-4-pyridyl)amino]-3-methoxy-N-(1-methylcyclohexyl)pyridine-2-carboxamide]
≥ 80%: pest or weed control at 200 ppm (Alternaria solani) | inhibition at 20 ppm [1] | pest or weed control at 200 ppm [2] | inhibition at 20 ppm [3] | pest or weed control at 200 ppm [4] | pest or weed control at 200 ppm [5] | inhibition at 20 ppm [6]

COc1ccc(Nc2cc(F)nc(F)c2)nc1C(=O)NC1(C#N)CCCC1 [Compound P-125, N-(1-cyanocyclopentyl)-6-[(2,6-difluoro-4-pyridyl)amino]-3-methoxy-pyridine-2-carboxamide]
≥ 80%: pest or weed control at 200 ppm (Alternaria solani) | pest or weed control at 200 ppm [2] | pest or weed control at 200 ppm [4] | pest or weed control at 200 ppm [5]

COc1ccc(Nc2cccc(C#N)c2)nc1C(=O)NC(C)(C)C [Compound P-146, N-tert-butyl-6-(3-cyanoanilino)-3-methoxy-pyridine-2-carboxamide]
≥ 80%: pest or weed control at 200 ppm (Alternaria solani) | inhibition at 20 ppm [1] | pest or weed control at 200 ppm [8] | inhibition at 20 ppm [3] | pest or weed control at 200 ppm [4] | pest or weed control at 200 ppm [5] | inhibition at 20 ppm [6]

Reference: patent US12458021B2, “Microbiocidal derivatives” (SYNGENTA CROP PROTECTION AG, priority 2019, dated 2025)
